Reference: patent publication US20220202783A1, “Use Of ADAM9 Inhibitor As Immunomodulator” (China Medical University, priority 2019, published 2022)

Columns and labels:
Format in all cases: cell-based
Design in all cases: key to effect of inhibiting tumor cell growth: “+” represents that the compound has the effect of inhibiting tumor cell growth
[1] = cytotoxicity assay in 293 cells; settings: 293
[2] = tested on: kidney cancer cells (293); assay: cytotoxicity assay in 293 cells; settings: Homo sapiens, HEK293
[3] = cytotoxicity assay in HNOF cells; settings: human, HNOF cells
HNOF = assay: cytotoxicity assay in HNOF cells; settings: HNOF
lung cancer cells (A549) = assay: cytotoxicity assay in A549 cells; settings: for IC50: Homo sapiens
Protocol: (§1) Please refer to FIG. 1A, FIG. 1B and Table 2, which show the analysis results of the compound of Formula (I) inhibiting ADAM9 activity. In FIG. 1A, Bm7 lung cancer cells were treated with the derivatives of the compound 6X-0310, and then cultured under anchorage-free culture condition. The expressions of ADAM9 and CDCP1 in Bm7 lung cancer cells were detected by Western blot, in which EF1α is an internal control, and mock represents Bm7 lung cancer cells without treatment. […] In the experiment, the compounds of Formula (I) of Example 1 to Example 32 were further performed cytotoxicity assay to measure the IC50 value of the compounds of Formula (I) of the present disclosure in lung cancer cell lines.

[4] = tested on: lung cancer cells (H1299); assay: cytotoxicity assay in H1299 cells; settings: for effect of inhibiting tumor cell growth: H1299; for IC50: Homo sapiens, NCI-H1299
Protocol: as §1

lung cancer cells (TC1) = assay: cytotoxicity assay in TC1 cells; settings: for IC50: TC-1
Protocol: as §1

[5] = tested on: lung cancer cells (Bm7brmx2); assay: cytotoxicity assay in Bm7brmx2 cells
Protocol: as §1

[6] = tested on: lung cancer cells (Bm7brmx2-1st); assay: cytotoxicity assay in Bm7brmx2-1st cells
Protocol: as §1

[7] = tested on: lung cancer cells (Bm7brmx2-2nd); assay: cytotoxicity assay in Bm7brmx2-2nd cells
Protocol: as §1

Compound | effect of inhibiting tumor cell growth [1] | IC50 [2] | IC50 [3] | effect of inhibiting tumor cell growth (HNOF) | effect of inhibiting tumor cell growth (lung cancer cells (A549)) | IC50 (lung cancer cells (A549)) | effect of inhibiting tumor cell growth [4] | IC50 [4] | effect of inhibiting tumor cell growth (lung cancer cells (TC1)) | IC50 (lung cancer cells (TC1)) | IC50 [5] | effect of inhibiting tumor cell growth [5] | IC50 [6] | effect of inhibiting tumor cell growth [6] | IC50 [7] | effect of inhibiting tumor cell growth [7]
N#C/C(=C\C=C\c1ccccc1)c1nc(CCN2C(=O)c3ccccc3C2=O)cs1 [6X-0311] | + | 231 µM | 411 µM | + | + | 211 µM | + | 505 µM | + | > 125 µM | > 125 µM | + | > 50 µM | + | 590 µM | +
O=C(Nc1nc(CCN2C(=O)c3ccccc3C2=O)cs1)c1ccc([N+](=O)[O-])cc1 [6X-0202] | + | 47.6 µM | 78.3 µM | + | + | 766 µM | + | 335 µM | + | 125 µM | > 125 µM | + | 68.6 µM | + | 1270 µM | +
O=C1c2ccccc2C(=O)N1CCc1csc(COc2cccc(C(F)(F)F)c2)n1 [12W-0232] | + | 73.6 µM | 103 µM | + | + | 184 µM | + | 119 µM | + | 99.2 µM | 138 µM | + | > 50 µM | + | 77.7 µM | +
N#C/C(=C/c1cc([N+](=O)O)ccc1Sc1ccccn1)c1nc(CCN2C(=O)c3ccccc3C2=O)cs1 [6X-0229] | + | 133 µM | 145 µM | + | + | 109 µM | + | 171 µM | + | 167 µM | 374 µM | + | 56.2 µM | + | 113 µM | +
CC(C)CN1CCCc2cc(/C=C(\C#N)c3nc(CCN4C(=O)c5ccccc5C4=O)cs3)ccc21 [4X-0311] | + | 62.9 µM | 80.7 µM | + | + | 238 µM | + | > 125 µM | + | 345 µM | 60.6 µM | + | 34.4 µM | + | 86.6 µM | +
O=C1c2ccccc2C(=O)N1CCc1csc(-c2cc3ccccc3[nH]2)n1 [13W-0303] | + |  |  | + | + |  | + |  | + |  |  | + |  | + |  | +
O=C1c2ccccc2C(=O)N1CCc1csc(-c2cccc(F)c2)n1 [12W-0275] | + | 109 µM | 129 µM | + | + | 199 µM | + | 156 µM | + | 103 µM | 212 µM | + | 97 µM | + | 441 µM | +
O=C1c2ccccc2C(=O)N1CCc1csc(N2CCCCC2)n1 [13W-0306] | + |  |  | + | + |  | + |  | + |  |  | + |  | + |  | +
O=C1c2ccccc2C(=O)N1CCc1csc(SCc2ccc(C(F)(F)F)cc2)n1 [13W-0301] | + |  |  | + | + |  | + |  | + |  |  | + |  | + |  | +
Cc1ccc(-c2nc(CCN3C(=O)c4ccccc4C3=O)cs2)cc1 [12W-0274] | + | 21.8 µM | 125 µM | + | + | > 125 µM | + | 203 µM | + | 161 µM | 913 µM | + | 80.6 µM | + | 472 µM | +
O=C1c2ccccc2C(=O)N1CCc1csc(N2C(=O)c3ccccc3C2=O)n1 [13W-0305] | + |  |  | + | + |  | + |  | + |  |  | + |  | + |  | +
O=C1CCC(=O)C1c1nc(CCN2C(=O)c3ccccc3C2=O)cs1 [13W-0307] | + |  |  | + | + |  | + |  | + |  |  | + |  | + |  | +
O=C(c1nc(CCN2C(=O)c3ccccc3C2=O)cs1)C(O)c1cc2ccccc2o1 (stereo not drawn) [13W-0302] | + |  |  | + | + |  | + |  | + |  |  | + |  | + |  | +
O=C1c2ccccc2C(=O)N1CCc1csc(OCc2cc(F)c(F)c(F)c2)n1 [13W-0300] | + |  |  | + | + |  | + |  | + |  |  | + |  | + |  | +
